This passage reports IC50 results from patent US7803801B2, “Aminopyridine compounds having Syk inhibitory activity” (Japan Tobacco, Inc., priority 2005, dated 2010).

The test system of assay [1] is cultured human mast cells. Kind of assay: Degranulation inhibition test using cultured human mast cells (IgE cross-linking, β-Hexosaminidase release). The assay is classed as cell-based. To be noted: Mast cell; Tables 1-x, compounds A; cultured human mast cells; read-out: human degranulation ave. IC50. An outline of the steps:
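CD34+ cord-blood cells cultured ≥8 weeks with SCF/IL-6/IL-3; FcεRI primed 5 days with rhIL-4 (1 ng/mL) and hIgE (0.5 μg/mL). Compound (0.1% DMSO) preincubated 10 min at 37 °C, then anti-IgE (final 10 μg/mL) 30 min; released β-hexosaminidase read at 405 nm versus total lysate, IC50 (M).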

Assay [2] has as its target GST-Syk Full Protein (human) (Homo sapiens, UniProt P43405). Kind of assay: Syk kinase inhibition test (HTRF method). The assay is classed as biochemical. The conditions noted are these: Tables 1-x, compounds A; read-out: sykHTRF ave IC50. In outline: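 Human GST-Syk full-length (6.4 nM) phosphorylated biotin-EDPDYEWPSA-NH2 (250 nM) with 100 μM ATP in HEPES pH 7.0/MgCl2 buffer, 2% DMSO, 30 min at room temperature. EDTA stop, then HTRF detection (streptavidin-XL665, Eu anti-phosphotyrosine) after 1 h; 665/620 ratio read.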

pIC50: −log10 of the molar value. Counter-ions that a name gives are not always drawn.

Consider `Cc1ccnc(Nc2cccc(-c3cnc(N4CCc5c(cccc5C(=O)O)C4)s3)n2)c1` [Compound A-582, 2-{5-[6-(4-methylpyridin-2-ylamino)pyridin-2-yl]thiazol-2-yl}-1,2,3,4-tetrahydroisoquinoline-5-carboxylic acid], for which the figures for the negative-log IC50 (pIC50) in assay [1] and in assay [2] were less than 6.00 and more than 7.00, respectively.
The matching figures for `Cc1ccnc(Nc2cccc(-c3cnc(N(C)Cc4cccc(C(=O)O)c4)s3)n2)c1` [Compound A-586, 3-[(N-methyl-N-{5-[6-(4-methylpyridin-2-ylamino)pyridin-2-yl]thiazol-2-yl}amino)methyl]benzoic acid dihydrochloride]: less than 6.00 and more than 7.00.
The matching figures for `Cc1ccnc(Nc2cccc(-c3cnc(N(C)Cc4ccc(CC(=O)O)cc4)s3)n2)c1` [Compound A-587, {4-[(N-methyl-N-{5-[6-(4-methylpyridin-2-ylamino)pyridin-2-yl]thiazol-2-yl}amino)methyl]phenyl}acetic acid dihydrochloride]: 6.00 to 7.00 and more than 7.00.
Regarding `Cc1ccnc(Nc2cccc(-c3cnc(N4CCC(CC(=O)O)C4)s3)n2)c1` (centres unmarked) [Compound A-588, (1-{5-[6-(4-methylpyridin-2-ylamino)pyridin-2-yl]thiazol-2-yl}pyrrolidin-3-yl)acetic acid], the pIC50 is less than 6.00 in assay [1] and more than 7.00 in assay [2].
On to `Cc1ccnc(Nc2cccc(-c3cnc(N4CCN(CC(=O)O)CC4)s3)n2)c1` [Compound A-589, (4-{5-[6-(4-methylpyridin-2-ylamino)pyridin-2-yl]thiazol-2-yl}piperazin-1-yl)acetic acid dihydrochloride], for which the negative-log IC50 (pIC50) in assay [1] was less than 6.00; in assay [2], more than 7.00.
For `Cc1ccnc(Nc2cccc(-c3cnc(N(C)[C@H]4CC[C@@H](C(=O)O)CC4)s3)n2)c1` [Compound A-591, cis-4-(N-methyl-N-{5-[6-(4-methylpyridin-2-ylamino)pyridin-2-yl]thiazol-2-yl}amino)cyclohexanecarboxylic acid] the same measures were 6.00 to 7.00 and more than 7.00.
For `Cc1ccnc(Nc2cccc(-c3cnc(N(C)[C@H]4CC[C@H](C(=O)O)CC4)s3)n2)c1` [Compound A-592, trans-4-(N-methyl-N-{5-[6-(4-methylpyridin-2-ylamino)pyridin-2-yl]thiazol-2-yl}amino)cyclohexanecarboxylic acid] the same measures were 6.00 to 7.00 and more than 7.00.
For `Cc1ccnc(Nc2cccc(-c3cnc(N(C)CCc4ccc(C(=O)O)cc4)s3)n2)c1` [Compound A-593, 4-[2-(N-methyl-N-{5-[6-(4-methylpyridin-2-ylamino)pyridin-2-yl]thiazol-2-yl}amino)ethyl]benzoic acid dihydrochloride] the same measures were 6.00 to 7.00 and more than 7.00.
Turning to `Cc1ccnc(Nc2cccc(-c3cnc(N4CCC(OCC(=O)O)CC4)s3)n2)c1` [Compound A-594, (1-{5-[6-(4-methylpyridin-2-ylamino)pyridin-2-yl]thiazol-2-yl}piperidin-4-yloxy)acetic acid dihydrochloride], the values for the negative logarithm of the IC50 (pIC50) in assay [1] and in assay [2] were less than 6.00 and more than 7.00, respectively.
The matching figures for `Cc1ccnc(Nc2cccc(-c3cnc(C4CCC(CC(=O)O)CC4)s3)n2)c1` (centres unmarked) [Compound A-595, (4-{5-[6-(4-methylpyridin-2-ylamino)pyridin-2-yl]thiazol-2-yl}cyclohexyl)acetic acid hydrochloride]: 6.00 to 7.00 and more than 7.00.
For the molecule `CN(Cc1ccc(C(=O)O)cc1)c1ncc(-c2cccc(Nc3cc(C4(C)OCCO4)ccn3)n2)s1` [Compound A-596, 4-{[N-methyl-N-(5-{6-[4-(2-methyl-[1,3]dioxolan-2-yl)pyridin-2-ylamino]pyridin-2-yl}thiazol-2-yl)amino]methyl}benzoic acid], the negative-log IC50 (pIC50) in assay [1] was 6.00 to 7.00; in assay [2] it was more than 7.00.
For the molecule `Cc1ccnc(Nc2cccc(-c3cnc(N(CC(=O)N(C)C)Cc4ccc(C(=O)O)cc4)s3)n2)c1` [Compound A-597, 4-[(N-dimethylcarbamoylmethyl-N-{5-[6-(4-methylpyridin-2-ylamino)pyridin-2-yl]thiazol-2-yl}amino)methyl]benzoic acid dihydrochloride], the negative logarithm of the IC50 (pIC50) in assay [1] was less than 6.00; in assay [2] it was more than 7.00.
For `Cc1ccnc(Nc2cccc(-c3cnc(N(CC(N)=O)[C@H]4CC[C@@H](C(=O)O)CC4)s3)n2)c1` [Compound A-598, cis-4-(N-carbamoylmethyl-N-{5-[6-(4-methylpyridin-2-ylamino)pyridin-2-yl]thiazol-2-yl}amino)cyclohexanecarboxylic acid] the same measures were less than 6.00 and more than 7.00.
Consider `Cc1ccnc(Nc2cccc(-c3cnc(N(CC(N)=O)C[C@H]4CC[C@H](C(=O)O)CC4)s3)n2)c1` [Compound A-599, trans-4-[(N-carbamoylmethyl-N-{5-[6-(4-methylpyridin-2-ylamino)pyridin-2-yl]thiazol-2-yl}amino)methyl]cyclohexanecarboxylic acid], for which the negative logarithm of the IC50 (pIC50) in assay [1] was less than 6.00; in assay [2] it was more than 7.00.
The matching figures for `Cc1ccnc(Nc2cccc(-c3cnc(N(CC(N)=O)[C@H]4CC[C@H](C(=O)O)CC4)s3)n2)c1` [Compound A-600]: less than 6.00 and 6.00 to 7.00.
For the molecule `Cc1ccnc(Nc2cccc(-c3cnc(N(CC(=O)N(C)C)C[C@H]4CC[C@H](C(=O)O)CC4)s3)n2)c1` [Compound A-601], the negative-log IC50 (pIC50) in assay [1] is less than 6.00; in assay [2], 6.00 to 7.00.
The matching figures for `Cc1ccnc(Nc2cccc(-c3cnc(N(CC(=O)N(C)C)[C@H]4CC[C@H](C(=O)O)CC4)s3)n2)c1` [Compound A-602]: less than 6.00 and 6.00 to 7.00.
On to `Cc1ccnc(Nc2cccc(-c3cnc(N(C)Cc4ccc(C(=O)O)s4)s3)n2)c1` [Compound A-603, 5-[(N-methyl-N-{5-[6-(4-methylpyridin-2-ylamino)pyridin-2-yl]thiazol-2-yl}amino)methyl]thiophene-2-carboxylic acid], for which the figures for the negative-log IC50 (pIC50) in assay [1] and in assay [2] were less than 6.00 and more than 7.00, respectively.
The matching figures for `Cc1ccnc(Nc2cccc(-c3cnc(N(C)Cc4ccc(C(=O)O)cc4Cl)s3)n2)c1` [Compound A-604, 3-chloro-4-[(N-methyl-N-{5-[6-(4-methylpyridin-2-ylamino)pyridin-2-yl]thiazol-2-yl}amino)methyl]benzoic acid dihydrochloride]: 6.00 to 7.00 and more than 7.00.
For `Cc1ccnc(Nc2cccc(-c3cnc(COc4ccc(C(=O)O)cc4)s3)n2)c1` [Compound A-605, 4-{5-[6-(4-methylpyridin-2-ylamino)pyridin-2-yl]thiazol-2-ylmethoxy}benzoic acid] the same measures were less than 6.00 and more than 7.00.
The matching figures for `COc1cc(C(=O)O)ccc1CN(C)c1ncc(-c2cccc(Nc3cc(C)ccn3)n2)s1` [Compound A-606, 3-methoxy-4-[(N-methyl-N-{5-[6-(4-methylpyridin-2-ylamino)pyridin-2-yl]thiazol-2-yl}amino)methyl]benzoic acid dihydrochloride]: 6.00 to 7.00 and more than 7.00.
Take `Cc1ccnc(Nc2cccc(-c3cnc(N4CCc5cc(C(=O)O)ccc5C4)s3)n2)c1` [Compound A-607, 2-{5-[6-(4-methylpyridin-2-ylamino)pyridin-2-yl]thiazol-2-yl}-1,2,3,4-tetrahydroisoquinoline-6-carboxylic acid]: the figures for the negative-log IC50 (pIC50) in assay [1] and in assay [2] were 6.00 to 7.00 and more than 7.00, respectively.
As to `Cc1ccnc(Nc2cccc(-c3cnc(N(C)Cc4nc(C(=O)O)cs4)s3)n2)c1` [Compound A-609, 2-[(N-methyl-N-{5-[6-(4-methylpyridin-2-ylamino)pyridin-2-yl]thiazol-2-yl}amino)methyl]thiazole-4-carboxylic acid], the figures for the pIC50 in assay [1] and in assay [2] were less than 6.00 and more than 7.00, respectively.
The matching figures for `Cc1ccnc(Nc2cccc(-c3cnc(N(C)[C@H]4CC[C@H](CC(=O)O)CC4)s3)n2)c1` [Compound A-610, [trans-4-(N-methyl-N-{5-[6-(4-methylpyridin-2-ylamino)pyridin-2-yl]thiazol-2-yl}amino)cyclohexyl]acetic acid]: 6.00 to 7.00 and more than 7.00.
For `Cc1ccnc(Nc2cccc(-c3cnc(N(C)[C@H]4CC[C@@H](CC(=O)O)CC4)s3)n2)c1` [Compound A-611, [cis-4-(N-methyl-N-{5-[6-(4-methylpyridin-2-ylamino)pyridin-2-yl]thiazol-2-yl}amino)cyclohexyl]acetic acid] the same measures were 6.00 to 7.00 and more than 7.00.
For `Cc1ccnc(Nc2cccc(-c3cnc(CCC4CCC(C(=O)O)CC4)s3)n2)c1` (centres unmarked) [Compound A-612, 4-(2-{5-[6-(4-methylpyridin-2-ylamino)pyridin-2-yl]thiazol-2-yl}ethyl)cyclohexanecarboxylic acid] the same measures were less than 6.00 and more than 7.00.
`Cc1ccnc(Nc2cccc(-c3cnc(N4CCC(C)(CC(=O)O)CC4)s3)n2)c1` [Compound A-613, (4-methyl-1-{5-[6-(4-methylpyridin-2-ylamino)pyridin-2-yl]thiazol-2-yl}piperidin-4-yl)acetic acid dihydrochloride]: the pIC50 in assay [1] is 6.00 to 7.00; in assay [2] it was more than 7.00.
For the molecule `Cc1ccnc(Nc2cccc(-c3cnc(N4CCOc5c(C(=O)O)cccc54)s3)n2)c1` [Compound A-614, 4-{5-[6-(4-methylpyridin-2-ylamino)pyridin-2-yl]thiazol-2-yl}-3,4-dihydro-2H-benzo[1,4]oxazine-8-carboxylic acid], the negative logarithm of the IC50 (pIC50) in assay [1] is less than 6.00; in assay [2] it was more than 7.00.
